According to patent publication US7410806B2, “Compound for inhibiting the influx of polymorphonuclear leukocytes (PMNs) in a tissue, its selection, pharmaceutical compositions and use” (Fornix Biosciences N.V., priority 1999, dated 2008):

Columns and labels:
[1] = system: PGP-induced PMN influx in the mouse lung; experiment: PGP-induced PMN influx in the mouse lung (lung-wash cell counts); type: in vivo, Balb/c mice; conditions: for Eos in lung-wash liquid / Monos in lung-wash liquid / Neutros in lung-wash liquid / Total cells in lung-wash liquid: PBS pre-treatment, atomization of the substance (10^-3 M, 30 min), 5 h after onset, ± SEM; for Influx of neutrophilic and eosinophilic granulocytes in the lungs: atomization of the substance
Procedure: Solutions were prepared of N—Ac-PGP (0.36 mg/ml; 10^−3 M) and N-methyl-PGP (0.32 mg/ml; 10^−3 M) in phosphate-buffered physiological salt (PBS). In an atomizing chamber, 6-8 weeks old Balb/c mice (groups of 4 mice) were subjected for 30 minutes to either N-acetyl-PGP or N-methyl-PGP. Control mice only received PBS. One hour prior to subjection in the atomizing chamber and one hour after the start of subjection each mouse received 50 μl of 1 mg/ml 4RTR. The treatment is outlined in the Table I below.
5 Hours after the onset of subjection the mice were sacrificed by administering an overdose of Nembutal. After the application of a tracheal canula the lungs were washed with 4 ml PBS. The lung-wash liquid was centrifuged (5 min.; 4° C.; 580 g) and the cell pellet was taken up in 150 μl PBS. The cells were counted under the microscope. To distinguish between neutrophilic and eosinophilic granulocytes and mononuclear cells (haematoxylin/eosin dye, H/E dye: Diff-Quick, Merz & Dade, A. G. Dübingen, Switzerland), the cytospin technique was applied (Buckley, T. L. and Nijkamp, F. P., “Airways hyperreactivity and cellular accumulation in a delayed-type hypersensitivity reaction in the mouse: modulation by capsaicin-sensitive nerves”. Am. J. Respir. Crit. Care Med. 149: 400-407 (1994)).

[2] = system: inflammatory cells in the bronchial-alveolar liquid; type: in vivo, C57B1/6J mice; conditions: for Number PMNs in bronchial-alveolar liquid / Total number infl. cells in bronchial-alveolar liquid: substance alone, aerosol on day 0, 2 and 7, 24 h after final treatment (day 8), n=3
Procedure: (§1) On day 0, 2 and 7, two groups C75Bl/6J mice received 30 minutes' treatment with an aerosol (in an atomizing chamber as described in example 1) comprising (i) vehicle (phosphate-buffered physiological salt solution), (ii) N—AcPGP (0.4 mg/ml) or (iii) N—AcPGP (0.4 mg/ml) and 4-RTR (1 mg/ml). 30 minutes prior to the aerosol, the mice of group (i) and (ii) received intranasal vehicle and the mice of group (iii), 4RTR (1 mg/ml). […] (see Table III).

[3] = system: alveolar dilatation (lung emphysema); experiment: Lung emphysema induced by N-AcPGP: mean linear intercept (Lm); type: in vivo, C75Bl/6J mice; conditions: N-AcPGP aerosol day 0, 2, 7; lungs on day 21; FIG. 1
Procedure: as §1
On day 21 the mice of the second group (which on day 0, 2, and 7 were treated in the same manner as the mice of the first group), were sacrificed by means of an overdose of anaesthetic (Nembutal) and the lungs were isolated and fixed by filling the lungs with Carnoy's fixative under a liquid pressure of 25 cm. The lungs were prepared for histological analysis. The mean linear intercept (Lm), indicative for alveolar dilatation, was calculated by placing a grid over the illustrations of 5 separate fields (300× magnification) per mouse lung. The total length of the lines was divided by the number of intercepts, resulting in the Lm, providing a measure for the average size of the bronchial volume of the lung.

Substance	Eos in lung-wash liquid [1]	Monos in lung-wash liquid [1]	Neutros in lung-wash liquid [1]	Total cells in lung-wash liquid [1]	Influx of neutrophilic and eosinophilic granulocytes in the lungs [1]	Number PMNs in bronchial-alveolar liquid [2]	Total number infl. cells in bronchial-alveolar liquid [2]	Increase of the total number of inflammatory cells in the bronchial-alveolar washing liquid in comparison with the vehicle control ([2]; N-AcPGP 0.4 mg/ml aerosol day 0, 2, 7, day 8)	Mean linear intercept (Lm), indicative for alveolar dilatation [3]
N-methyl-Pro-Gly-Pro [N-methylPGP]	0.2 ± 0.1 ×10^4 cells/ml	33.9 ± 3.4 ×10^4 cells/ml	11.9 ± 3.6 ×10^4 cells/ml	46.1 ± 3.2 ×10^4 cells/ml	results in the influx of neutrophilic and eosinophilic granulocytes in the lungs				
FMLP						10.7± 3 ×10^5	61 ± 5 ×10^5		
N-acetyl-Pro-Gly-Pro [N-AcPGP]	1.1 ± 0.6 ×10^4 cells/ml	28.3 ± 8.6 ×10^4 cells/ml	20.1 ± 7.5 ×10^4 cells/ml	49.5 ± 3.1 ×10^4 cells/ml	results in the influx of neutrophilic and eosinophilic granulocytes in the lungs	11.7 ± 0.8 ×10^5	55 ± 1 ×10^5	2 fold	significant increase
